Assay results taken from patent US7138388B2, “Methods to treat autoimmune and inflammatory conditions” (Celmed Oncology (USA), Inc., priority 2001, dated 2006).

Tested on: animals with collagen-induced arthritis
Test: Collagen-induced arthritis in mice: treatment after disease onset, assessed by clinical score and paw swelling
Type: in vivo, male DBA/1 mice
Method: Arthritis was induced in male DBA/1 mice (8–10 weeks old) by intradermal injection of bovine type II collagen, purified in-house at the Kennedy Institute of Rheumatology as previously described (Miller, E. J. et al. (1972)). Collagen was administered in complete Freund's adjuvant (Difco, Detroit, Michigan). Onset of arthritis was variable, occurring from Day 14 up to Day 40 after immunization. Arthritis onset was considered to occur on the day that swelling and/or erythema were observed. Clinical score is a composite of disease severity and the number of limbs affected, and was monitored daily from onset of disease and used as an assessment of disease progress. The scoring used was: 0, Normal; 1, slight swelling with erythema; 2, pronounced swelling; 3, joint rigidity. In addition, the extent of paw swelling reflects the degree of edema in affected limbs. Arthritis increased progressively over 10 days as reflected by both clinical score and paw swelling.
Anti-TNF antibody was used in these experiments was as described by Marinova-Mutafchieva, L. et al. (2000). NB1011 was administered daily by intraperitoneal administration at 2.5 mg total dose per day. Anti-TNF antibody was compared with NB1011 because, at present, antiTNF antibody is the optimal single agent for treatment of collagen induced arthritis (Marinova-Mutafchieva, L. et al. (2000)).
Following immunization with collagen, mice were maintained until a significant clinical score for disease progression was achieved (between 2.5 and 3.5, see FIG. 1 and Methods). Mice were then treated with control saline injections, NB1011, or with anti-TNF antibody as a positive control. […] Paw swelling is an alternative measure of CIA disease severity.

5-(2-Bromovinyl)-2′-deoxyuridine phenyl N-methoxy-L-alaninyl phosphoramidate [NB1011]
difference between NB1011 and anti-TNF groups with regard to clinical score (FIG. 1, NB1011 compared with anti-TNF positive control): no significant difference
disease suppression by clinical score (FIG. 1, vs saline-treated control group, p<0.05, NB1011 intraperitoneal daily, 2.5 mg total dose per day, treatment started at clinical score between 2.5 and 3.5): significant disease suppression
difference between NB1011 and anti-TNF groups with regard to paw swelling (FIG. 2, NB1011 compared with anti-TNF positive control): no significant difference
suppression of swelling relative to anti-TNF group (FIG. 2, qualitative remark): may have been less dramatic
disease suppression by paw swelling (FIG. 2, vs saline-treated control group, p<0.05, NB1011 intraperitoneal daily, 2.5 mg total dose per day): significant disease suppression
activity by comparison with earlier reported work on other agents (comparison with literature (Malfait 2000; Miotla 2000; Marinova-Mutafchieva 2000)): superior to anti-angiogenesis agents, an anti-CD4 immunosuppressive agent, and cannabidiol
